Measured values: patent US4521422A, “Aryl and heteroaryl[7-(aryl and heteroaryl)pyrazolo[1,5-a]pyrimidin-3-yl]methanones” (American Cyanamid Company, priority 1984, dated 1985)

Key:
[1] = test system: Clonic Seizures Caused by Pentylenetetrazole in Rats; assay: Protection against clonic seizures caused by pentylenetetrazole in rats; type: in vivo; conditions: Rattus norvegicus, oral or i.p., read-out: % of Rats Protected; for responders at 25 mg/kg: pentylenetetrazole 23 mg/kg i.v. at 30 or 60 min
Method: The anti-anxiety and anticonvulsant properties of the novel compounds of the present invention have been established in a test which indicates anxiolytic and antiepileptic activity by the measure of protection from convulsions resulting from the administration of pentylenetetrazole. Single or graded dose levels of the test compounds were administered orally or intraperitoneally in a 2% starch vehicle, containing 0.5% v/v polyethylene glycol and one drop of Polysorbate 80 to groups of at least 4 rats. At 30 or 60 minutes, the rats were treated intravenously with pentylenetetrazole at a dose of 23 mg/kg of body weight. This dose is estimated to cause clonic seizures in 99% of unprotected rats. It has been reported [R. T. Hill and D. H. Tedeschi, "Animal Testing and Screening Procedures in Evaluating Psychotropic Drugs" in "An Introduction to Psychopharmacology", Eds. R. R. Rech and K. E. Moore, Raven Press, New York, pp 237-288 (1971)] that there is a high degree of correlation between antagonism of pentylenetetrazole seizures in rats and anti-anxietyor anticonvulsant effects in higher warm-blooded animals.

[2] = test system: Nonconditioned Passive Avoidance in Rats; assay: Nonconditioned passive avoidance (conflict) test in rats; type: in vivo, rat (Wistar); set-up: key: Active: considered active if the number of shocks received by the test group is significantly higher than the control group by the Mann-Witney U test; conditions: oral or i.p.
Method: Another test which has been used to assess anti-anxiety effects is a nonconditioned passive avoidance procedure described by [J. R. Vogel, B. Beer and D. E. Clody, "A Simple and Reliable Conflict Procedure for Testing Anti-Anxiety Agents", Psychopharmacologia, 21, 1-7 (1971)]. A conflict situation is induced in rats by a modification of this method.
Groups of 6 naive, Wistar strain rats, weighing 200-240 g each were deprived of water for 48 hours and food for 24 hours. The test compounds were administered in single or graded, oral or intraperitoneal doses, suspended in a 2% starch vehicle containing 0.5% v/v polyethylene glycol and one drop of polysorbate 80. Control animals received the vehicle alone. At 30 to 60 minutes each rat was placed in an individual plexiglass chamber. Water was available ad libitum from a tap located in the rear of the chamber. A 0.7 milliampere DC shocking current was established between the stainless steel grid floor and the tap. After 20 licks of non-shocked drinking, a shock was delivered for 2 seconds and then further shocks were delivered on a ratio of one shock for 2 seconds for every 20 licks. This was continued for a total of 3 minutes. The number of shocks taken by each rat during the 3 minute interval was recorded and compared to a control group. […]

[3] = test system: Brain-Specific Receptors of Rats; assay: Inhibition of the binding of 3H-benzodiazepine to brain-specific receptors of rats; set-up: species or system rat (Wistar); conditions: 3H-diazepam 1.5 nM or 3H-flunitrazepam 1.0 nM; rat cortex P2 fraction; test concentration not given
[4] = pentylenetetrazole 23 mg/kg i.v.

Structure (SMILES)	responders at 25 mg/kg [1] [%]	Result (nonconditioned passive avoidance) ([2]; dose 25.0 mg/kg)	further results
O=C(c1ccccc1F)c1cnn2c(-c3ccncc3)ccnc12 [(2-fluorophenyl)[7-(4-pyridinyl)pyrazolo[1,5-a]pyrimidin-3-yl]methanone]	50	Active	
CCC(=O)N(CC)c1cccc(-c2ccnc3c(C(=O)c4ccccc4)cnn23)c1 [N-[3-(3-Benzoylpyrazolo[1,5-a]pyrimidin-7-yl)phenyl]N-ethylpropanamide]			responders at 12.5 mg/kg [1, 4]: 100%; Result (nonconditioned passive avoidance) ([2]; dose 12.5 mg/kg): Active
CCN(C(C)=O)c1cccc(-c2ccnc3c(C(=O)c4ccco4)cnn23)c1 [N--ethyl-N--[3-[3-(2-furanylcarbonyl)pyrazolo[1,5-a]pyrimidin-7-yl]phenyl]acetamide]			responders at 12.5 mg/kg [1, 4]: 100%; Result (nonconditioned passive avoidance) ([2]; dose 12.5 mg/kg): Active
CCc1ccc(C(=O)c2cnn3c(-c4cccnc4)ccnc23)cc1 [(4-ethylphenyl)[7-(3-pyridinyl)pyrazolo[1,5-a]pyrimidin-3-yl]methanone]	100	Active	
CCC(=O)N(C)c1cccc(-c2ccnc3c(C(=O)c4ccccc4)cnn23)c1 [N-[3-(3-Benzoylpyrazolo[1,5-a]pyrimidin-7-yl)phenyl]-N-methylpropanamide]			responders at 0.8 mg/kg [1, 4]: 100%; Result (nonconditioned passive avoidance) ([2]; dose 1.5 mg/kg): Active
CCC(=O)N(C)c1cccc(-c2ccnc3c(C(=O)c4ccco4)cnn23)c1 [N-[3-[3-(2-Furanylcarbonyl)pyrazolo[1,5-a]pyrimidin-7-yl]phenyl]-N-methylpropanamide]		Active	responders at 6 mg/kg ([1]; dose 6.0 mg/kg, pentylenetetrazole 23 mg/kg i.v.): 100%
CCNc1cccc(-c2ccnc3c(C(=O)c4ccco4)cnn23)c1 [[7-[3-(Ethylamino)phenyl]pyrazolo[1,5-a]pyrimidin-3-yl]-2-furanylmethanone]	100	Active	
CC(=O)N(C)c1cccc(-c2ccnc3c(C(=O)c4ccco4)cnn23)c1 [N-[3-[3-(2-Furancarbonyl)pyrazolo[1,5-a]pyrimidin-7-yl]phenyl]-N-methylacetamide]	100	Active	
COc1cccc(C(=O)c2cnn3c(-c4cccnc4)ccnc23)c1 [(3-methoxyphenyl)[7-(3-pyridinyl)pyrazolo[1,5-a]pyrimidin-3-yl]methanone]	75	Active	
CCNc1cccc(-c2ccnc3c(C(=O)c4ccccc4)cnn23)c1 [[7-[3-(Ethylamino)phenyl]pyrazolo[1,5-a]pyrimidin-3-yl]phenylmethanone]	100	Active	
CC(=O)N(C)c1ccc(-c2ccnc3c(C(=O)c4ccccc4)cnn23)cc1 [N--[4-(3-benzoylpyrazolo[1,5-a]pyrimidin-7-yl)phenyl]-N--methylacetamide]		Active	
O=C(c1ccc(F)cc1)c1cnn2c(-c3cccnc3)ccnc12 [(4-fluorophenyl)[7-(3-pyridinyl)pyrazolo[1,5-a]pyrimidin-3-yl]methanone]	63	Active	
O=C(c1ccccc1F)c1cnn2c(-c3cccc(C(F)(F)F)c3)ccnc12 [(2-fluorophenyl)[7-[3-(trifluoromethyl)phenyl]pyrazolo[1,5-a]pyrimidin-3-yl]methanone]	50	Active	
COc1ccc(C(=O)c2cnn3c(-c4cccc(C(F)(F)F)c4)ccnc23)cc1OC [(3,4-dimethoxyphenyl)[7-[3-(trifluoromethyl)phenyl]pyrazolo[1,5-a]pyrimidin-3-yl]methanone]	50		% Inhibition [3]: 94%
O=C(c1ccsc1)c1cnn2c(-c3cccnc3)ccnc12 [[7-(3-pyridinyl)pyrazolo[1,5-a]pyrimidin-3-yl]-3-thienylmethanone]	50	Active	
O=C(c1ccccc1)c1cnn2c(-c3cc(Cl)cc(Cl)c3)ccnc12 [[7-(3,5-dichlorophenyl)pyrazolo[1,5-a]pyrimidin-3-yl]phenyl-methanone]	25		% Inhibition [3]: 20%
Cc1cccc(C(=O)c2cnn3c(-c4cccc(C(F)(F)F)c4)ccnc23)c1 [(3-methylphenyl)[7-[3-(trifluoromethyl)phenyl]pyrazolo[1,5-a]pyrimidin-3-yl]methanone]	25		% Inhibition [3]: 67%
CCN(C(C)=O)c1cccc(-c2ccnc3c(C(=O)c4ccccc4)cnn23)c1 [N-[3-(3-Benzoylpyrazolo[1,5-a]pyrimidin-7-yl)phenyl]-N-ethylacetamide]		Active	responders at 6.2 mg/kg ([1]; dose 6.2 mg/kg, pentylenetetrazole 23 mg/kg i.v.): 100%
CN(C)c1ccc(C(=O)c2cnn3c(-c4cccnc4)ccnc23)cc1 [[4-(dimethylamino)phenyl][7-(3-pyridinyl)pyrazolo[1,5-a]pyrimidin-3-yl]methanone]	100	Active	
O=C(c1ccncc1)c1cnn2c(-c3cccnc3)ccnc12 [4-pyridinyl[7-(3-pyridinyl)pyrazolo[1,5-a]pyrimidin-3-yl]methanone]	100	Active	
Cc1ccc(C(=O)c2cnn3c(-c4cccc(C(F)(F)F)c4)ccnc23)cc1 [(4-methylphenyl)[7-[3-(trifluoromethyl)phenyl]pyrazolo[1,5-a]pyrimidin-3-yl]methanone]	50		Result (nonconditioned passive avoidance) ([2]; dose 12.5 mg/kg): Active
O=C(c1ccccc1F)c1cnn2c(-c3cccnc3)ccnc12 [(2-fluorophenyl)[7-(3-pyridinyl)pyrazolo[1,5-a]pyrimidin-3-yl]methanone]	100	Active	
O=C(c1ccncc1)c1cnn2c(-c3cccc(C(F)(F)F)c3)ccnc12 [4-pyridinyl[7-[3-(trifluoromethyl)phenyl]pyrazolo[1,5-a]pyrimidin-3-yl]methanone]	100	Active	
Cc1ccc(C(=O)c2cnn3c(-c4ccncc4)ccnc23)cc1 [(4-methylphenyl)[7-(4-pyridinyl)pyrazolo[1,5-a]pyrimidin-3-yl]methanone]	50		% Inhibition [3]: 19%
CCC(=O)N(CC)c1cccc(-c2ccnc3c(C(=O)c4ccco4)cnn23)c1 [N-Ethyl-N-[3-[3-(2-furanylcarbonyl)pyrazolo[1,5-a]pyrimidin-7-yl]phenyl]propanamide]			Result (nonconditioned passive avoidance) ([2]; dose 12.5 mg/kg): Active
O=C(c1cccc(F)c1)c1cnn2c(-c3ccncc3)ccnc12 [(3-fluorophenyl)[7-(4-pyridinyl)pyrazolo[1,5-a]pyrimidin-3-yl]methanone]	100	Active	
O=C(c1ccc(F)cc1)c1cnn2c(-c3ccccn3)ccnc12 [(4-fluorophenyl)[7-(2-pyridinyl)pyrazolo[1,5-a]pyrimidin-3-yl]methanone]	50		% Inhibition [3]: 17%
CC(=O)N(C)c1cccc(-c2ccnc3c(C(=O)c4ccccc4)cnn23)c1 [N-[3-(3-Benzoylpyrazolo[1,5-a]pyrimidin-7-yl)phenyl]-N-methylacetamide]			responders at 0.8 mg/kg [1, 4]: 75%; Result (nonconditioned passive avoidance) ([2]; dose 3.1 mg/kg): Active
Cc1cnc2c(C(=O)c3ccccc3)cnn2c1-c1ccccc1 [(6-methyl-7-phenylpyrazolo[1,5-a]pyrimidin-3-yl)phenyl-methanone]	25		% Inhibition [3]: 24%
CN(C)c1ccc(C(=O)c2cnn3c(-c4cccc(C(F)(F)F)c4)ccnc23)cc1 [[4-(dimethylamino)phenyl][7-[3-(trifluoromethyl)phenyl]pyrazolo[1,5-a]pyrimidin-3-yl]methanone]	100	Active	
